What was measured:
Type in all cases: biochemical
PI3 Kinase γ = PI3 Kinase γ (Homo sapiens, UniProt P48736); experiment: Fluorescence polarization assay for PI3K
Protocol: (§1) Fluorescence Polarization Assay for PI3K
(§2) This assay is used to determine the IC50 of compounds of the present invention as it identifies inhibitors of PI3 kinase by measuring inhibition.
(§3) Reaction Buffer: 20 mM HEPES, pH 7.5, 2 mM MgCl2, 0.05% CHAPS; and 0.01% BME (added fresh) Stop/Detection Buffer: 100 mM HEPES, pH 7.5, 4 mM EDTA, 0.05% CHAPS; ATP 20 mM in water; PIP2 (diC8, cat# P-4508) 1 mM in water (MW=856.5); GST-GRP 1.75 mg/mL or 1.4 mg/mL in 10% glycerol; Red detector (TAMRA) 2.5 μM; Plate: Nunc 384 well black polypropylene fluorescence plate.
(§4) The assay is run by placing 5 μL of diluted enzyme per well, then 5 μL of diluted compound (or 9.5 μL enzyme then 0.5 μL compound in DMSO) is added and mixed. Then, 10 μL substrate is added to start the reaction. The samples are incubated 30-60 minutes, then the reaction is stopped by adding 20 μL stop/detector mix. PI3K is diluted with reaction buffer (e.g., 5 μL or 7.5 μL PI3K into 620 μL reaction buffer), and 5 μL of diluted enzyme is used per well. 5 μL reaction buffer or drug diluted in buffer (e.g., 4 μL/100 so final DMSO is 1% in reaction) is added to each. Pipetting up and down mixes the samples. Alternatively, the enzyme can be diluted to 1215 μL. In this case 9.8 μL is added per well and 0.2 μL compound is added in DMSO. To prepare 1 mL of substrate solution, 955 μL reaction buffer, 40 μL PIP2, and 2.5 μL ATP are mixed. 10 μL of substrate is added to each well to start the reaction.
(§5) Stop/detector mix is prepared by mixing 4 μL Red detector and 1.6 μL or 2.0 μL GST-GRP with 1 mL Stop buffer, which results in 10 nM probe and 70 nM GST-GRP). 20 μL of the stop/detector mix is added to each well to stop the reaction. The plates are read after 30-90 minutes keeping the red probe solutions dark. For the zero time point, stop/detector mix is added to the enzyme just before adding substrate. For an extra control, stop/detector mix is added to buffer (no enzyme) and substrate or to just buffer (no substrate). […] The recommended reaction has 0.06 μL per 20 μL (0.015 μg/20 μL) or 0.01125 μg/15 μL or 0.75 μg/mL. Plates are read on machines with filters for Tamra. The units are mP with no enzyme controls reading app 190-220 mP units. Fully active enzyme reduces fluorescence polarization down to 70-100 mP after 30 minutes. An active compound raises the mP values halfway to control or to 120-150 mP units.

PI3 Kinase α = PI3 Kinase α (Homo sapiens, UniProt P42336); experiment: Fluorescence polarization assay for PI3K
Protocol: as §1, §2, §3, §4, §5

Human mTOR = target: T1, Human mTOR (Homo sapiens, UniProt P42345); experiment: mTOR kinase assay (DELFIA format, purified enzyme); conditions: His6-S6K substrate, read-out: TOR Kinase IC50
T1 construct: FLAG
Protocol: mTOR Kinase Assay Methods
Human mTOR assays (See Toral-Barza, et al. Biochem Biophys. Res. Commun. 2005 Jun. 24; 332(1):304-10) with purified enzyme are performed in 96-well plates by DELFIA format as follows. Enzymes are first diluted in kinase assay buffer (10 mM HEPES (pH 7.4), 50 mM NaCl, 50 mM β-glycerophosphate, 10 mM MnCl2, 0.5 mM DTT, 0.25 mM microcystin LR, and […]). To each well, 12 μL of the diluted enzyme is mixed briefly with 0.5 μL test inhibitor or control vehicle dimethylsulfoxide (DMSO). The kinase reaction is initiated by adding 12.5 μL kinase assay buffer containing ATP and His6-S6K to give a final reaction volume of 25 μL containing 800 ng/mL FLAG-TOR, […] and […]. The reaction plate is incubated for 2 hours (linear at 1-6 hours) at room temperature with gentle shaking and then terminated by adding 25 μL Stop buffer (20 mM HEPES (pH 7.4), 20 mM EDTA, 20 mM EGTA). The DELFIA detection of the phosphorylated (Thr-389) His6-S6K is performed at room temperature using a monoclonal anti-P(T389)-p70S6K antibody (1A5, Cell Signaling) labeled with Europium-N1-ITC (Eu) (10.4 Eu per antibody, PerkinElmer). The DELFIA Assay buffer and Enhancement solution can be purchased from PerkinElmer. 45 μL of the terminated kinase reaction mixture is transferred to a MaxiSorp plate (Nunc) containing 55 μL PBS. The His6-S6K is allowed to attach for 2 hours after which the wells are aspirated and washed once with PBS. 100 μL of DELFIA Assay buffer with 40 ng/mL Eu-P(T389)-S6K antibody is added. The antibody binding is continued for 1 hour with gentle agitation. The wells are then aspirated and washed 4 times with PBS containing 0.05% Tween-20 (PBST). 100 μL of DELFIA Enhancement solution is added to each well and the plates are read in a PerkinElmer Victor model plate reader. Data obtained is used to calculate enzymatic activity and enzyme inhibition by potential inhibitors.

Chain of PI3 Kinase α (P42336 whole entry): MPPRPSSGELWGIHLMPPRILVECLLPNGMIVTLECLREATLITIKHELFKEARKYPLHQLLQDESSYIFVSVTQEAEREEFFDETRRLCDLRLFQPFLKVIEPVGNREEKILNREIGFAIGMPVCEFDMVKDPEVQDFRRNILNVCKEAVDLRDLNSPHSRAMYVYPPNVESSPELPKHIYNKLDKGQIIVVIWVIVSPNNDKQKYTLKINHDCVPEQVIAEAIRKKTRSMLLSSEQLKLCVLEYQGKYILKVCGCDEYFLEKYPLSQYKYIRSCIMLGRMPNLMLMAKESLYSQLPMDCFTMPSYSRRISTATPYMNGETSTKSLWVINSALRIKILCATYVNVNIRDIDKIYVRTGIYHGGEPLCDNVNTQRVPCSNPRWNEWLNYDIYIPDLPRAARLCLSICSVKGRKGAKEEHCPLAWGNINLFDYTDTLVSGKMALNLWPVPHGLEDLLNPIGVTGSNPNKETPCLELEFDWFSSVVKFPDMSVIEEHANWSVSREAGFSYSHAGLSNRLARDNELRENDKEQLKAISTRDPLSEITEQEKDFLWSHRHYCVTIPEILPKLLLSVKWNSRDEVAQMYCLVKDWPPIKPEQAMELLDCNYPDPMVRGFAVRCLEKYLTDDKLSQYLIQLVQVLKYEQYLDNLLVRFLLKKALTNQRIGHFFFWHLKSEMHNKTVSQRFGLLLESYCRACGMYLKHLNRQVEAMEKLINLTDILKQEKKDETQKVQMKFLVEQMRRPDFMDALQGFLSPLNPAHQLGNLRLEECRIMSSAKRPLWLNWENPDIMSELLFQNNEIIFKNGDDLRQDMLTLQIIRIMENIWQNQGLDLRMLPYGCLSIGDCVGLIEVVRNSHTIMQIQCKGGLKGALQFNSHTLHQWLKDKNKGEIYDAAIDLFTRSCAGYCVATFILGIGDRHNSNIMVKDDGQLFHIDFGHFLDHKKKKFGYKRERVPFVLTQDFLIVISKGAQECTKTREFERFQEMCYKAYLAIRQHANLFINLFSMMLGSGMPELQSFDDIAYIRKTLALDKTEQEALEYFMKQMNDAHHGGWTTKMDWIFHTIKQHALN
Chain of PI3 Kinase α (P27986 whole entry partner): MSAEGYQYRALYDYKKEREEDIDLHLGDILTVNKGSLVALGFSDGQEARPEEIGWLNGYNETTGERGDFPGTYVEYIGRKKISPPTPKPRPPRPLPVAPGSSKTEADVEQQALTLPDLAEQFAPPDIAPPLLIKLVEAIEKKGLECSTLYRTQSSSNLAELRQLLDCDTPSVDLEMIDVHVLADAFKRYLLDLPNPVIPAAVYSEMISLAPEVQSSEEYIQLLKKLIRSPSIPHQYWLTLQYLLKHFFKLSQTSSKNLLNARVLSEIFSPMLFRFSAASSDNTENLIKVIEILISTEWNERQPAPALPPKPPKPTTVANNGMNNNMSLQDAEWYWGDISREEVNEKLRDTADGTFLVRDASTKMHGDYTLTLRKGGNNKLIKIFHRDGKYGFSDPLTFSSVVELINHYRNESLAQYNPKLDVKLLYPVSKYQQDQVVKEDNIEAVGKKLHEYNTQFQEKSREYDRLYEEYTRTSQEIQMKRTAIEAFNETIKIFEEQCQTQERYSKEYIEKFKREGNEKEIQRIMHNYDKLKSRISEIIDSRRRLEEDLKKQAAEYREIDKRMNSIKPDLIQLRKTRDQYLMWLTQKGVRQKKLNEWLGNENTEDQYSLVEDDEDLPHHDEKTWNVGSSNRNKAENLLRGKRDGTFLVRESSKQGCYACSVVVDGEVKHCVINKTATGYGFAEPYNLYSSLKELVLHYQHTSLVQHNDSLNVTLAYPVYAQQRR
Chain of PI3 Kinase γ (P48736 whole entry): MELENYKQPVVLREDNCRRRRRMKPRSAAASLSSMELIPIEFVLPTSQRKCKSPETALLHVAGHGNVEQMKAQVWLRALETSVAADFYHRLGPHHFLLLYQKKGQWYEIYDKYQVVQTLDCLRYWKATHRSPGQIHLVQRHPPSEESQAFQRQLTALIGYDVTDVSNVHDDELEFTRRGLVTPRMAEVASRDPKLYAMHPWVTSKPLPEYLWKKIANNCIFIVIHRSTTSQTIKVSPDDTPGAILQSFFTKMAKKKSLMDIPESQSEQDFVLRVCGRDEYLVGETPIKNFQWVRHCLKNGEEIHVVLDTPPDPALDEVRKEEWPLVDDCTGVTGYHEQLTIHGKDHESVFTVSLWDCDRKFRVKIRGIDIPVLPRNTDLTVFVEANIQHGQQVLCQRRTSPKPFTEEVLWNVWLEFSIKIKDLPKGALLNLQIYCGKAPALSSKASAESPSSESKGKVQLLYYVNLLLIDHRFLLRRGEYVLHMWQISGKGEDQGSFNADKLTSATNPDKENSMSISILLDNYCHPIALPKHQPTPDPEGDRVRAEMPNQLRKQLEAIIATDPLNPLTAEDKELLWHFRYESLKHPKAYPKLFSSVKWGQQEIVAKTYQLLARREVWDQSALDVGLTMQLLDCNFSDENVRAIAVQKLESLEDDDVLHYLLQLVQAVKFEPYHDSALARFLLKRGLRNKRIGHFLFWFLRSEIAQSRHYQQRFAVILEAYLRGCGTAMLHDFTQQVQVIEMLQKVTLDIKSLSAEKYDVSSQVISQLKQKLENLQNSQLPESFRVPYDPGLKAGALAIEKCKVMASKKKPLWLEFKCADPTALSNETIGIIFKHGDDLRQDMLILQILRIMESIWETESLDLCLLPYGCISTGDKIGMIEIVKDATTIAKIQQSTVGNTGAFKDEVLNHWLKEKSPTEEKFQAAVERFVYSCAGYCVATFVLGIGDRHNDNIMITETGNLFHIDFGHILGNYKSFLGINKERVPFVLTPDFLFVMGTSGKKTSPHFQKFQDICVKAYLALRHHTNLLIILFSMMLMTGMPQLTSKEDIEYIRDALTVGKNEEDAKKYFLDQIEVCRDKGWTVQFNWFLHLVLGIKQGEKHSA

Row | IC50 (PI3 Kinase γ) [µM] | IC50 (PI3 Kinase α) [µM] | IC50 (Human mTOR) [µM] | Compound
1 | 2.49 | 0.525 | 2.4 | Oc1cncc(-c2nc(C3=CCOCC3)c3ncn(C4CCN(Cc5cccnc5)CC4)c3n2)c1 [Compound 29, 5-{6-(3,6-dihydro-2H-pyran-4-yl)-9-[1-(pyridin-3-ylmethyl)piperidin-4-yl]-9H-purin-2-yl}pyridin-3-ol]
2 | 2.47 | 0.275 | 2 | Oc1cncc(-c2nc(C3=CCOCC3)c3ncn(C4CCN(Cc5ccc(Br)nc5)CC4)c3n2)c1 [Compound 30, 5-[9-{1-[(6-bromopyridin-3-yl)methyl]piperidin-4-yl}-6-(3,6-dihydro-2H-pyran-4-yl)-9H-purin-2-yl]pyridin-3-ol]
3 | 2.99 | 0.619 | 1.6 | Oc1cncc(-c2nc(C3=CCOCC3)c3ncn(C4CCN(Cc5ccccn5)CC4)c3n2)c1 [Compound 31, 5-{6-(3,6-dihydro-2H-pyran-4-yl)-9-[1-(pyridin-2-ylmethyl)piperidin-4-yl]-9H-purin-2-yl}pyridin-3-ol]
4 | 2.53 | 0.858 | 1.7 | COc1ccc(CN2CCC(n3cnc4c(C5=CCOCC5)nc(-c5cncc(O)c5)nc43)CC2)cn1 [Compound 32, 5-[6-(3,6-dihydro-2H-pyran-4-yl)-9-{1-[(6-methoxypyridin-3-yl)methyl]piperidin-4-yl}-9H-purin-2-yl]pyridin-3-ol]
5 | 0.385 | 0.265 | 12 | Oc1cncc(-c2nc(C3=CCOCC3)c3ncn(C4CCN(Cc5c[nH]c6ccc(F)cc56)CC4)c3n2)c1 [Compound 33, 5-[6-(3,6-dihydro-2H-pyran-4-yl)-9-{1-[(5-fluoro-1H-indol-3-yl)methyl]piperidin-4-yl}-9H-purin-2-yl]pyridin-3-ol]
6 | 1.5 | 0.526 | 13 | Nc1ncccc1CN1CCC(n2cnc3c(C4=CCOCC4)nc(-c4cncc(O)c4)nc32)CC1 [Compound 34, 5-[9-{1-[(2-aminopyridin-3-yl)methyl]piperidin-4-yl}-6-(3,6-dihydro-2H-pyran-4-yl)-9H-purin-2-yl]pyridin-3-ol]
7 | 2.48 | 0.506 | 2.8 | COc1ncccc1CN1CCC(n2cnc3c(C4=CCOCC4)nc(-c4cncc(O)c4)nc32)CC1 [Compound 36, 5-[6-(3,6-dihydro-2H-pyran-4-yl)-9-{1-[(2-methoxypyridin-3-yl)methyl]piperidin-4-yl}-9H-purin-2-yl]pyridin-3-ol]
8 | 0.719 | 0.437 | 1.6 | Oc1cncc(-c2nc(C3=CCOCC3)c3ncn(C4CCN(Cc5ccc(Cl)nc5)CC4)c3n2)c1 [Compound 37, 5-[9-{1-[(6-chloropyridin-3-yl)methyl]piperidin-4-yl}-6-(3,6-dihydro-2H-pyran-4-yl)-9H-purin-2-yl]pyridin-3-ol]
9 | 0.543 | 0.152 | 0.19 | O=c1[nH]c2nc(-c3cccc(O)c3)nc(C3=CCOCC3)c2[nH]1 [Compound 38, 6-(3,6-dihydro-2H-pyran-4-yl)-2-(3-hydroxyphenyl)-7,9-dihydro-8H-purin-8-one]
10 | 0.819 | 0.524 | 1.3 | O=c1[nH]c2nc(-c3cccc(CO)c3)nc(C3=CCOCC3)c2[nH]1 [Compound 39, 6-(3,6-dihydro-2H-pyran-4-yl)-2-[3-(hydroxymethyl)phenyl]-7,9-dihydro-8H-purin-8-one]
11 | 3.16 | 0.54 | 1.4 | Oc1cccc(-c2nc(C3=CCOCC3)c3ncn(C4CCNCC4)c3n2)c1 [Compound 40, 3-[6-(3,6-dihydro-2H-pyran-4-yl)-9-piperidin-4-yl-9H-purin-2-yl]phenol]
12 | 3.11 | 0.543 | 0.13 | CNC(=O)Nc1ccc(-c2nc(C3=CCOCC3)c3ncn(C4CCN(Cc5ccc[nH]5)CC4)c3n2)cc1 [Compound 41, 1-(4-{6-(3,6-dihydro-2H-pyran-4-yl)-9-[1-(1H-pyrrol-2-ylmethyl)piperidin-4-yl]-9H-purin-2-yl}phenyl)-3-methylurea]
